B1: siltuximab (antibody, chains of the INN, looked up, V domains shown)
VH: EVQLVESGGKLLKPGGSLKLSCAASGFTFSSFAMSWFRQSPEKRLEWVAEISSGGSYTYYPDTVTGRFTISRDNAKNTLYLEMSSLRSEDTAMYYCARGLWGYYALDYWGQGTSVTVSS
VL: QIVLIQSPAIMSASPGEKVTMTCSASSSVSYMYWYQQKPGSSPRLLIYDTSNLASGVPVRFSGSGSGTSYSLTISRMEAEDAATYYCQQWSGYPYTFGGGTKLEIK

Key:
Assay type in all cases: cell-based
[1] = test system: 17 Diffuse Large B Cell Lymphoma (DLBCL) cell lines; assay: High throughput screen of ibrutinib combinations, growth inhibition by ATP-lite at 72h; conditions: for synergy in combination with JNJ-02 (ibrutinib): synergy score heat map across DLBCL cell lines
Method: (§1) A high throughput screen of 17 Diffuse Large B Cell Lymphoma (DLBCL) cell lines was conducted for their response to Ibrutinib in combination with 99 anti-cancer agents selected from among standard-of-care and emerging therapeutics and targeted agents. The goal of the project was to identify and quantify specific synergies with Ibrutinib to identify pathways that contribute to clinical response. Examples of therapeutics tested included first-line DLBCL therapeutics: RCHOP (Rituximab, Cyclophosphamide, Doxorubicin, Vincristine, Prednisone) or EPOCH (+Etoposide) and Second-line therapeutics: Dexamethasone, Prednisone, Etoposide, Vincristine, Gemcitabine, Carboplatin, Ifosfamide, Bendamustine, Cyclophosphamide, Rituximab, Lenalidomide, and Anthracycline.
(§2) The 17 DLBCL cell lines tested were DB, DOHH-2, HBL-1, HT, NU-DHL-1, OCI-Lyl, OCI-Ly10, OCI-Ly18, OCI-Ly19, OCI-Ly3, OCI-Ly7, Pfeiffer, SU-DHL-5, SU-DHL-6, SU-DHL-8, TMD8 and Toledo. Eight of the cell lines were screened in human MSC-conditioned medium (hMSC-CM) and nine of the cell lines were screened with hMSC-CM+1 ug/ml each of anti-IgM and anti-IgG. The assay was performed in a 384-well format (6×6 HFDR format) with intra-plate replicates (Ibrutinib n=4; enhancers n=2; combination n=1), inter-plate replicates (n=3) and 20 self-crosses. The dose-response matrix screening was designed to detect both types of multi-target interaction, potency shifts or efficacy boosts.
(§3) The cells were seeded 24h before dosing. Cells were dosed with ibrutinib (JNJ-02) and the test compounds at varying concentrations as depicted in FIGS. 18-39G. At T0 (0h after dosing) and T72 (72h after dosing) ATP-lite raw values were obtained. Growth inhibition of the cell culture was measured as follows:
(§4) Measure untreated at time 0 (V0) (the time at which drugs are added), treated (T) and untreated (V) (at assay end point (72h).
(§5) 100% (Total growth inhibition)—treatment viability signal and 0h vehicle viability signal are matched. (T=V0)
(§6) 200% (complete kill)—treatment viability signal is 0. (T=0)
(§7) The growth inhibition measure is sensitive to the cell doubling time (e.g., it measures the fraction of (net) growth inhibition during the assay period). Growth inhibition gives additional valuable information. For example, 0%-100% (growth inhibition) represents % reduction in net increase in the cells with vehicle during drug incubation period, 100% represents no net increase in viability signal at T72 and T0) (i.e., cytostatic) and 100%-200% (killing zone) represents cytotoxic effects.

[2] = test system: DOHH-2 cell line; assay: High throughput combination screen, growth inhibition (ATP-lite)
Method: as §1, §2, §3, §4, §5, §6, §7

[3] = test system: OCI-Ly18 cell line; assay: as above
Method: as §1, §2, §3, §4, §5, §6, §7

[4] = test system: TMD8 cell line; assay: as above
Method: as §1, §2, §3, §4, §5, §6, §7

Molecule | synergy in combination with JNJ-02 (ibrutinib) [1] | other results
CN(C)CC[C@H](CSc1ccccc1)Nc1ccc(S(=O)(=O)NC(=O)c2ccc(N3CCN(Cc4ccccc4-c4ccc(Cl)cc4)CC3)cc2)cc1[N+](=O)[O-] [ABT-737] | strong synergy and good breadth of activity | –
CC(C)c1c(C(=O)Nc2ccccc2)c(-c2ccccc2)c(-c2ccc(F)cc2)n1CC[C@@H](O)C[C@@H](O)CC(=O)O [Atrovastatin] | synergizes | –
CCOC(=O)C1=C(N)Oc2ccc(Br)cc2C1C(C#N)C(=O)OCC (stereo not drawn) [HA14-1] | modest synergy in selected cell lines | –
O=C(c1ccc(Nc2nccc(-c3cc4ccccc4s3)n2)cc1)N1CCC(N2CCCC2)CC1 [IKK inhibitor VII] | strong synergy and good breadth of activity | –
Nc1cccc2c1CN(C1CCC(=O)NC1=O)C2=O (stereo not drawn) [Lenalidomide] | synergized | activity as a single agent ([1]; single agent, cell line not given): not active as a single agent; synergy with JNJ-02 (ibrutinib) ([2]; combination with ibrutinib): does not show synergy; activity as a single agent ([2]; single agent): active as a single agent; synergy with JNJ-02 (ibrutinib) ([3]; combination with ibrutinib): does not show synergy; activity as a single agent ([3]; single agent): active as a single agent; synergy with JNJ-02 (ibrutinib) ([4]; combination with ibrutinib): synergizes; activity as a single agent ([4]; single agent): not active as a single agent
C[C@]12C=CC(=O)C=C1CC[C@@H]1[C@@H]2[C@@H](O)C[C@@]2(C)[C@H]1CC[C@]2(O)C(=O)CO [prednisolone] | strong synergy and good breadth of activity | –
rituximab | Synergy is observed | –
B1 | not | –

Source: US20200368235A1, “IBRUTINIB COMBINATION THERAPY” (Pharmacyclics LLC, priority 2013, published 2020)
